Marks after values point to notes of the source that are not given here.
Tests used:
MtInhA = target: T1, MtInhA (Mycobacterium tuberculosis, UniProt P9WGR1); test: MtInhA enzyme inhibition by steady-state kinetics (NADH oxidation at 340 nm); format: biochemical; settings: for Ki: EI complex; for mode of inhibition with respect to NADH / mode of inhibition with respect to DD-CoA: Lineweaver-Burk plot
T1 construct: made in house
Description: In order to assess the relative potency of the compounds, inhibition studies were performed by steady-state kinetic studies using a UV-2550 UV/Visible spectrophotometer (Shimadzu^©), monitoring the NADH oxidation at 340 nm (εβ-NADH = […]), in the forward direction. Experiments were performed at 25 °C, in 100 mM Pipes pH 7.0 and were started with the addition of the 2.2 μM MtInhA to a total reaction volume of 500 μL, and monitoring the change in absorbance for 1 min. […] This is needed as IC50 and classical competitive, non-competitive and uncompetitive inhibition modes follow a rapid equilibrium process. Accordingly, MtInhA (2.2 μM) was pre-incubated with inhibitor (10 μM), aliquots were taken at different times and added to the reaction mixture containing NADH (60 μM) and DD-CoA (45 μM), and initial velocity measurements were plotted as a function of time of pre-incubation[6]. Control experiments were carried out pre-incubating MtInhA (2.2 μM) with DMSO (5%) in the absence of inhibitors, and initial velocity measured as a function of time of pre-incubation[6].
The IC50 value, which defines the concentration of inhibitor required to […], was calculated for each compound. The maximal rate for the enzyme reaction was determined in the absence of inhibitor, in the presence of fixed non-saturating concentration of NADH (60 μM ≅ Km) and DD-CoA (45 μM ≅ Km)[10][11][14]. The reaction velocity was analyzed as the percentage of inhibition as a function of inhibitor concentration and data were fitted to Eq 1.
The most promising compounds were further evaluated to assess the inhibition profile and to determine the inhibition constant (Ki). Initial rates were measured as a function of NADH concentration (10–160 μM) at fixed non-saturating DD-CoA concentration (45 μM) and fixed-varied inhibitor concentrations (0.5–120 μM). The Ki values towards NADH were calculated using the uncompetitive equation (Eq. 2) for compounds Labio_6 and Labio_16, in which [I] is the inhibitor concentration, [S] is the substrate concentration, Km and Vmax are, respectively, the Michaelis-Menten constant and maximum velocity, and Kii is the overall inhibition constant for the ESI complex. The Ki of Labio_03 was determined previously.
For compounds Labio_2, Labio_11, Labio_15 and Labio_17, the Ki values with respect to NADH were calculated using Eq. 3, which describes a non-competitive inhibition, where [I] is the inhibitor concentration, [S] is the substrate concentration, Km and Vmax are, respectively, the Michaelis-Menten constant and maximum velocity, Kii is the overall inhibition constant for the ESI complex and Kis is the overall inhibition constant for the EI complex.
Inhibition studies were also carried out in the presence of fixed non-saturating concentration of NADH (60 μM) and fixed-varied inhibitor concentrations (0.5–120 μM), when DD-CoA was the variable substrate (15–135 μM). For compounds Labio_2, Labio_6, and Labio_16, the inhibition constants for the DD-CoA substrate were determined using Eq. 3 for the non-competitive mode of inhibition. For compounds Labio_11, Labio_15 and Labio_17, the Ki for this substrate were calculated from data fitting to the equation for competitive inhibition (Eq. 4), in which [I] is the inhibitor concentration, [S] is the substrate concentration, Km and Vmax are, respectively, the Michaelis-Menten constant and maximum velocity, and Kis is the overall inhibition constant for the EI complex.

in vitro = format: cell-based, murine; settings: mouse
Description: Cellular viability determination after incubation with the test compounds (Labio_16 and Labio_17) was performed essentially as described elsewhere. Briefly, Vero (and Hacat/RAW) cells were grown in DMEM media supplemented with 10% inactivated fetal bovine serum and 1% penicillin-streptomycin. The cells were maintained in culture bottles at 37 °C in humidified atmosphere with 5% CO2. Cells were seeded at 3 × 10^3 cells per well (for Hacat/RAW or Vero) in a 96-well microtiter plate and incubated for 24 hours to adhere. Medium was carefully aspirated and replaced with 90 μL DMEM, and 10 μL of stocks of the chemical compounds were added to a final concentration of 20 μM (DMSO 2.0%, v/v). After 72 h at 37 °C under 5% of CO2, the cultures were incubated with 3-(4,5-dimethylthiazol-2-yl)-2,5-diphenyltetrazolium bromide (MTT) (1 mg mL^−1) for 3 h. The formazan crystals were dried at room temperature for at least 24 h and dissolved in DMSO. The absorbance was measured at 595 nm (Spectra Max M2e, Molecular Devices, USA). The percentage of cell viability for treated groups was reported considering the control wells (DMSO 0.5%-treated) as 100% of cell viability: cell viability (%) = (absorbance of treated wells/absorbance of control wells) x 100. Data are expressed as mean of cell viability ± standard error of mean of three independent experiments performed in triplicate.

[1] = system: M. tuberculosis H37Rv in infected RAW 264.7 macrophages; test: Intracellular activity in M. tuberculosis-infected macrophages (CFU); format: cell-based, Mycobacterium tuberculosis; settings: 5 μM; for Mean log CFU/well ± SEM: 5 days of incubation; for nature of intracellular activity (bactericidal / bacteriostatic): 5 days, vs early and late control
[2] = Ki DD-CoA Kis, varied DD-CoA 15–135 μM, fixed NADH 60 μM
[3] = varied NADH 10–160 μM, fixed DD-CoA 45 μM, ESI complex

T1 sequence (P9WGR1 whole entry, looked up): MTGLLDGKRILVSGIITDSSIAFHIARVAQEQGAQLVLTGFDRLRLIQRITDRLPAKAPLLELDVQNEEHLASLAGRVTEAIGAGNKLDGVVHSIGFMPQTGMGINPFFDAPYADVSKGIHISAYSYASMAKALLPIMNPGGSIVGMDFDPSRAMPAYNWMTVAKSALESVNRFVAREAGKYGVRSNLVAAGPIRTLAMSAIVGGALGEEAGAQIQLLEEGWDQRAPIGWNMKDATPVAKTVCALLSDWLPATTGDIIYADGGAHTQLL

SMILES | IC50 (MtInhA) | Ki (MtInhA; [2]) | Ki (MtInhA; Ki NADH Kis, varied NADH 10–160 μM, fixed DD-CoA 45 μM) | mode of inhibition with respect to NADH (MtInhA; fixed DD-CoA 45 μM) | mode of inhibition with respect to DD-CoA (MtInhA; fixed NADH 60 μM) | Ki NADH Kii (MtInhA; [3]) | viability at 72 h, 20 µM (in vitro) | Mean log CFU/well ± SEM [1] | nature of intracellular activity (bactericidal / bacteriostatic) [1] | Ki DD-CoA Kii (MtInhA; varied DD-CoA 15–135 μM, fixed NADH 60 μM, ESI complex)
CCOC(=O)c1ccc2nc(C)cc(Nc3ccc(N4CCCCC4)cc3)c2c1 [Labio_17] | 20 ± 3 µM | 6.3 ± 0.7 µM | 8 ± 3 µM | non-competitive | competitive | 8 ± 1 µM | 98 ± 2% | 3.4 ± 0.1***^++ log CFU/well | bactericidal | 
Cc1ccccc1OCc1nc(-c2ccc(NC(=O)c3cccs3)cc2)no1 [Labio_16] | 24 ± 2 µM | 13 ± 1 µM |  | uncompetitive | non-competitive | 7 ± 1 µM | 91 ± 1% | 3.9 ± 0.1 log CFU/well | bacteriostatic | 8 ± 3 µM
